Drawing on the Kinase Knowledgebase extract (Sharma et al. 2016), this text covers IC50 for 15 compounds.

Usually IC50 stands for the concentration needed to halve the response being measured. Read a low IC50 as higher potency.

Among the targets are PIK3CD (Human) (UniProt O00329); PIK3CA (human) (UniProt P42336); PIK3CG (human) (UniProt P48736); PIK3CB (Human) (UniProt P42338).
Experiment in all cases: Enzyme Assay

Sequence of PIK3CB (Human) (P42338 whole entry, looked up): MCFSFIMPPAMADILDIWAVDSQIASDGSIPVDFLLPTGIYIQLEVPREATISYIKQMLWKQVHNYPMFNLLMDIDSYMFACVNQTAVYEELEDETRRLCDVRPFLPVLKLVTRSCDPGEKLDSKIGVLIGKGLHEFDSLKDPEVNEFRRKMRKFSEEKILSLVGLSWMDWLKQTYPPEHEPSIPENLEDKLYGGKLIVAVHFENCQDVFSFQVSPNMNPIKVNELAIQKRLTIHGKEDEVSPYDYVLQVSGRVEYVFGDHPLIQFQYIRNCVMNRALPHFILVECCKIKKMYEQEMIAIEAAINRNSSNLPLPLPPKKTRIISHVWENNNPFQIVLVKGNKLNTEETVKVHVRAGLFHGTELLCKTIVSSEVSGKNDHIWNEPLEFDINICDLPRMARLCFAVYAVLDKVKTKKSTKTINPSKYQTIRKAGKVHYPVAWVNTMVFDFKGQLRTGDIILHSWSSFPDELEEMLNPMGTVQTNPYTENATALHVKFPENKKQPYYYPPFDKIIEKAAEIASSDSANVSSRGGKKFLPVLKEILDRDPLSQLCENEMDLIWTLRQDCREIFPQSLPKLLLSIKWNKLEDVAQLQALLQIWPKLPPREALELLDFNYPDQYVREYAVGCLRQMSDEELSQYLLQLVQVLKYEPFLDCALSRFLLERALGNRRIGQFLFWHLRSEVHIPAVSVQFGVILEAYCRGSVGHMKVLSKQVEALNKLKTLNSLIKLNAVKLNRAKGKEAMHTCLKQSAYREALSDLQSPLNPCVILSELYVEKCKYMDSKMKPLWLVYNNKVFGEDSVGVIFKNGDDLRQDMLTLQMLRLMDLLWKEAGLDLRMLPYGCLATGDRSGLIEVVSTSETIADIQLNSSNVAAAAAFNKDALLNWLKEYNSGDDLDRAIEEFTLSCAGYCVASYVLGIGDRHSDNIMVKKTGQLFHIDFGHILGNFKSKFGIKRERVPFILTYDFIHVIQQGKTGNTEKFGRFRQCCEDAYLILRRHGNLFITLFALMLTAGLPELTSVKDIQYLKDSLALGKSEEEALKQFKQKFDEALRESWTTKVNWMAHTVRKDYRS
Sequence of PIK3CD (Human) (O00329 whole entry, looked up): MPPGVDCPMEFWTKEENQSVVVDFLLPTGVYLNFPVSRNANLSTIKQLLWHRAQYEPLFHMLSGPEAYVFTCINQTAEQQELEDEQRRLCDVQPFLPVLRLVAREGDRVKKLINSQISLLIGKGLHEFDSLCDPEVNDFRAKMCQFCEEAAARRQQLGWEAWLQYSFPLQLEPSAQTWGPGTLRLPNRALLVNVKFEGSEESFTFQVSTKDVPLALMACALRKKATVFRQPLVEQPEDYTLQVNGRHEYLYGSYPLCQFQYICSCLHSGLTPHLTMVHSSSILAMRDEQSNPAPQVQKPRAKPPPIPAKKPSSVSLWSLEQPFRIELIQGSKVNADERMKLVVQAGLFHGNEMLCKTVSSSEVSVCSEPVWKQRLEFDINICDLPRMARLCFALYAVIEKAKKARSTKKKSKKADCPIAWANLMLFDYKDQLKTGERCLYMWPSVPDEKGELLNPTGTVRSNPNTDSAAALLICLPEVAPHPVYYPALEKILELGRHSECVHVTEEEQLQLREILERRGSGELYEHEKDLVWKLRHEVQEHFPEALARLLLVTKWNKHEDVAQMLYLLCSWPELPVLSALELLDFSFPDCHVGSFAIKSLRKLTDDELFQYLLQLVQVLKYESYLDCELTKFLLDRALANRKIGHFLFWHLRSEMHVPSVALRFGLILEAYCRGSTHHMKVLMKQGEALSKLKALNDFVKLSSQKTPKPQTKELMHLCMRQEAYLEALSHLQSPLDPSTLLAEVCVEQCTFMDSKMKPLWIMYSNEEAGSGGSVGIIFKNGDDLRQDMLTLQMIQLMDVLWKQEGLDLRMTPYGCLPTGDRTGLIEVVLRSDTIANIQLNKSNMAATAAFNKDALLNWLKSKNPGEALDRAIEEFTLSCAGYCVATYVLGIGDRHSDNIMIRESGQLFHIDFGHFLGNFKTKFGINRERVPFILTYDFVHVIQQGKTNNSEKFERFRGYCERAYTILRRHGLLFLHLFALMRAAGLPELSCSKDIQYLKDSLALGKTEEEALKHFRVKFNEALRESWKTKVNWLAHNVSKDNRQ
Sequence of PIK3CG (human) (P48736 whole entry, looked up): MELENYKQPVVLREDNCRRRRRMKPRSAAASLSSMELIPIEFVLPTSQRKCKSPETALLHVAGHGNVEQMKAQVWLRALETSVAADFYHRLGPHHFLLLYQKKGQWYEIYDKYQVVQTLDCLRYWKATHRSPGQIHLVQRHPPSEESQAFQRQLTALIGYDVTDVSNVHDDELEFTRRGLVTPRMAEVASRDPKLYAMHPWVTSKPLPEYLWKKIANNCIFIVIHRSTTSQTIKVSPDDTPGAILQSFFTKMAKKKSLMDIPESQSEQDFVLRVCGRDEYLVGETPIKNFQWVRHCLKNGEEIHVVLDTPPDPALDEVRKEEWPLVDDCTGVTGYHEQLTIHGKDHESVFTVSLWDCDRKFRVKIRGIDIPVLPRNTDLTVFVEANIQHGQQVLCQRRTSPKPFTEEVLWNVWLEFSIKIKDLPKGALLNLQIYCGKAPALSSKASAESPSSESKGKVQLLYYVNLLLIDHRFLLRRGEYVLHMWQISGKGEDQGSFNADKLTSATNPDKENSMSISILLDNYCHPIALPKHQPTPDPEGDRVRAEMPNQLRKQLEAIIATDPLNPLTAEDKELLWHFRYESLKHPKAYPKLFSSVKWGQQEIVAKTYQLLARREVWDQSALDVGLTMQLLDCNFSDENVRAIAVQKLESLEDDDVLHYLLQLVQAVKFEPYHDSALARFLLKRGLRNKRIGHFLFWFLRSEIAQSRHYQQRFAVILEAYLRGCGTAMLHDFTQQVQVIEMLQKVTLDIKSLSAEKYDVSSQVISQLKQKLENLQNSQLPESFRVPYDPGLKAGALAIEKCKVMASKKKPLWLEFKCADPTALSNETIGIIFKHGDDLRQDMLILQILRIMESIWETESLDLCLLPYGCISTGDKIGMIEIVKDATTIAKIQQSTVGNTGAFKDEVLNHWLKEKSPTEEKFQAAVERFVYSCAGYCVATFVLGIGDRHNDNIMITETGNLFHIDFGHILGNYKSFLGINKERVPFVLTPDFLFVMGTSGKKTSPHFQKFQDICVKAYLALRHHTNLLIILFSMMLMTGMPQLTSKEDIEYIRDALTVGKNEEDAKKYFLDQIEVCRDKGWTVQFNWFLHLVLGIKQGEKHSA
Sequence of PIK3CA (human) (P42336 whole entry, looked up): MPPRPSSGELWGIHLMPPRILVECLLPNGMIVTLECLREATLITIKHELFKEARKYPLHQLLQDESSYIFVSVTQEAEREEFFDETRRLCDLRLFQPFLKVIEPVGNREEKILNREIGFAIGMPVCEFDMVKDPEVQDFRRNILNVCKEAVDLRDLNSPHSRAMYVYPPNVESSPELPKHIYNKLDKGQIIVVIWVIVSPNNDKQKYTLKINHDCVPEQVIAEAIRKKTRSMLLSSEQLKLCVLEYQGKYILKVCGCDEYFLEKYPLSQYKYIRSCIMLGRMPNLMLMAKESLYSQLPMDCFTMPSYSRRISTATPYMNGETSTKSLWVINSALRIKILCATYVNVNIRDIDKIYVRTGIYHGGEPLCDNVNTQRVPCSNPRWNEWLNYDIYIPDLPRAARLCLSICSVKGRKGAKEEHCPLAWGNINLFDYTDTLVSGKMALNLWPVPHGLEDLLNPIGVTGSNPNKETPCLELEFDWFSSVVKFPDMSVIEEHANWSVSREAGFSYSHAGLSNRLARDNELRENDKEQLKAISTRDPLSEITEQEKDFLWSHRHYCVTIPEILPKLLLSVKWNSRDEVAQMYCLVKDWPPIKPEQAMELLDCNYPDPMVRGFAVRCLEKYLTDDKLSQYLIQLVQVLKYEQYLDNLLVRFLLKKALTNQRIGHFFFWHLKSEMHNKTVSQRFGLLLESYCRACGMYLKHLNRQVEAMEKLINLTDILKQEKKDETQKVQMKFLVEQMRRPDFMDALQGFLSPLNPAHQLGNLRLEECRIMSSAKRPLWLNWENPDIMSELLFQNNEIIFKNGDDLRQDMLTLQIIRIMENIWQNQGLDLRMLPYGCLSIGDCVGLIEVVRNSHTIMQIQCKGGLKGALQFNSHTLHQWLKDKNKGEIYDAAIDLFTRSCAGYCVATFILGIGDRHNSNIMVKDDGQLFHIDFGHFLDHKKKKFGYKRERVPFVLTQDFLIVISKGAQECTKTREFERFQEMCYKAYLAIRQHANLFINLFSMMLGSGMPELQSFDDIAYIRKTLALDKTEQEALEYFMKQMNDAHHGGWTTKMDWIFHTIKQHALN

On to `O=c1cc(N2CCOCC2)nc2n1CC[C@@H](C(F)(F)F)N2Cc1ccccc1`, for which the concentration for half-maximal inhibition (IC50) was determined as 53 nM against PIK3CD (Human), 50 nM against PIK3CA (human), 1600 nM against PIK3CG (human) and 99 nM at PIK3CB (Human).
Consider `O=c1cc(N2CC3CCC(C2)O3)nc2n1CC[C@@H](C(F)(F)F)N2Cc1ccc(Cl)s1`, for which the IC50 stood at 3790 nM against PIK3CD (Human) and 3690 nM against PIK3CA (human).
Take `O=c1cc(N2CCOCC2)nc2n1CCC1(CC1)N2C[C@@H](O)c1ccccc1`: the half-inhibitory concentration (IC50) on PIK3CD (Human) stood at 606 nM; on PIK3CA (human), 931 nM; against PIK3CG (human) it was 2930 nM; against PIK3CB (Human) it was 3500 nM.
In the case of `O=c1cc(N2CCOCC2)nc2n1CC[C@@H](C(F)(F)F)N2CCc1ccccc1`, the concentration for half-maximal inhibition (IC50) against PIK3CD (Human) turned out to be 14 nM; against PIK3CA (human), 17 nM; against PIK3CG (human), 107 nM; against PIK3CB (Human) it was 36 nM.
Turning to `O=c1cc(N2CCOCC2)nc2n1CC[C@@H](C(F)(F)F)N2c1cc(F)cc(F)c1`, the 50% inhibitory concentration (IC50) was 270 nM against PIK3CD (Human), 3510 nM on PIK3CG (human) and 340 nM on PIK3CB (Human).
As to `O=c1cc(N2CCOCC2)nc2n1CC[C@@H](C(F)(F)F)N2C[C@H](O)c1ccccc1`, the half-inhibitory concentration (IC50) at PIK3CG (human) was greater than 10000 nM; on PIK3CB (Human), 998 nM.
`CC(C)OCCN1c2nc(N3CCOCC3)cc(=O)n2CC[C@H]1C(F)(F)F`: the figures for the IC50 on PIK3CD (Human), at PIK3CG (human) and against PIK3CB (Human) were 211 nM, 1750 nM and 233 nM, respectively.
As for `CC1(C)CCn2c(nc(N3CCOCC3)cc2=O)N1C[C@@H](O)c1ccccc1`, the concentration for half-maximal inhibition (IC50) turned out to be 1170 nM at PIK3CD (Human), 1920 nM against PIK3CA (human), 7350 nM against PIK3CG (human) and 4590 nM at PIK3CB (Human).
For `C[C@H]1COCCN1c1cc(=O)n2c(n1)N(Cc1ccc(Cl)s1)[C@H](C(F)(F)F)CC2`, the half-inhibitory concentration (IC50) against PIK3CD (Human) was 364 nM; on PIK3CA (human), 1010 nM; against PIK3CG (human), 1820 nM; against PIK3CB (Human) it was 643 nM.
For `O=c1cc(N2CCOCC2)nc2n1CC[C@@H](C(F)(F)F)N2C[C@@H](O)c1ccccc1`, the 50% inhibitory concentration (IC50) was 15 nM at PIK3CG (human) and 16 nM at PIK3CB (Human).
For `C[C@@H]1COCCN1c1cc(=O)n2c(n1)N(Cc1ccc(Cl)s1)[C@H](C(F)(F)F)CC2`, the IC50 was 1300 nM on PIK3CD (Human) and 2900 nM on PIK3CA (human).
`CC(C)OCCN1c2nc(N3CCOCC3)cc(=O)n2CCC1(C)C`: the IC50 on PIK3CD (Human) is 4130 nM; at PIK3CA (human) it was 7430 nM; at PIK3CG (human), greater than 10000 nM; against PIK3CB (Human) it was greater than 10000 nM.
With `O=c1cc(N2CCOCC2)nc2n1CC[C@@H](C(F)(F)F)N2c1ccccc1`, the results for the IC50 against PIK3CD (Human), at PIK3CG (human) and against PIK3CB (Human) were 61 nM, 1880 nM and 93 nM, respectively.
For the compound `CC(C)OCCN1c2nc(N3CCOCC3)cc(=O)n2CC[C@@]1(C)C(F)(F)F`, the concentration for half-maximal inhibition (IC50) was 27 nM on PIK3CD (Human), 88 nM against PIK3CA (human), 628 nM at PIK3CG (human) and 34 nM at PIK3CB (Human).
Regarding `O=c1cc(N2CCOCC2)nc2n1CC[C@@H](C(F)(F)F)N2Cc1ccc(Cl)s1`, the 50% inhibitory concentration (IC50) against PIK3CD (Human) was 169 nM; at PIK3CA (human) it was 502 nM; against PIK3CG (human), 7170 nM; at PIK3CB (Human) it was 218 nM.
